Measurements from US20220175893A1, “COMBINATIONS OF TANNASE AND PROBIOTIC FORMULATIONS AND METHODS OF USE FOR IMPROVING TANNIN METABOLISM” (THE TEXAS A&M UNIVERSITY SYSTEM, priority 2019, published 2022).
Read-outs that look alike come from different tables or passages of the source. Marks after values point to notes of the source that are not given here.

How the values were obtained:
3T3-L1 adipocytes = details: cited from earlier work
[1] = molecular target: T1, Tannase sourced from Aspergillus oryzae (Aspergillus oryzae, UniProt P78581); assay: Tannase (10^−3 U/mL) hydrolysis of galloyl glycosides, LC-MS; assay type: biochemical
T1 construct: purchased
Method: Standards solutions of monogalloyl glucose, pentagalloyl glucose, and a gallotannin isolate were incubated with tannase at 10^−3 U/mL to characterize the by-products and relative rates of galloyl derivative hydrolysis. 250 μL of 200 ppm monogalloyl glucose or pentagalloyl glucose were incubated with 650 μL of buffer set to the enzyme's optimum conditions (pH 5.5, 0.1 M citric acid buffer, 30° C.), and 100 μL of tannase 10^−3 U/mL for final standard concentrations of 50 ppm. […] Experiments were performed in a static water bath and prepared in triplicate for each time point at 0, 0.016, 0.033, 0.050, 0.083, 0.167, 0.5, 1, 1.5, 2, 3, 4 h. To end enzymatic activity, solutions were immediately diluted with 1000 μL 0.1% formic acid MeOH. Lastly, samples were filtered with a 0.45 μm syringe filter prior to LC-MS analysis.
Galloyl derivatives were characterized and quantified by use of LC-MS on a Thermo Finnigan HPLC. Separations were in reversed-phase using a Finnigan Surveyor HPLC coupled to a Surveyor PDA detector and gradient separations were performed using a Phenomenex Kinetex™ (Bannockburn, II) C18 column, (150×4.6 mm, 2.6 μm) at room temperature. Injections were made into the column by use of a 50 μL sample loop. […] A gradient was run of 0% Phase B for 2 min and changed to 10% Phase B in 4 min, 10% Phase B was held to 10 min, 10 to 40% Phase B in 25 min, and 40% to 65% Phase B in 35 min, 65% to 85% Phase B in 41 min, 85% was held to 49 min before returning to initial conditions. The electrospray interface worked in negative ionization mode. Source and capillary temperatures were set at 325° C., source voltage was 4.0 kV, capillary voltage was set at −47 V, and collision energy for MS/MS analysis was set at 35 eV. The instrument operated with sheath gas and auxiliary gas (N2) flow rates set at 10 units/min and 5 units/min, respectively. The instrument was tuned specifically for pentagalloyl glucose. […] Digalloyl glucoses, and trigalloyl glucoses were quantified at 280 nm and reported as equivalents of monogalloyl glucose. Tetragalloyl glucose and higher were quantified and reported as pentagalloyl glucose equivalents.
Tannase sourced from Aspergillus oryzae was incubated with standard solutions of monogalloyl glucose, pentagalloyl glucose, and a gallotannin isolate sourced from mango in an effort to characterize and quantify the intermediates formed during hydrolysis. […] Characterization of the different galloyl derivatives that can be formed during tannase hydrolysis is critical as they are likely to have different bio efficacies.

rabbits [2] = assay: Oral LD50 in rabbits (literature); assay type: in vivo, rabbit; details: for equivalent dose of the LD50 for a human equivalent of 75 kg: for 10 days
Method: For a human equivalent of 75 kg, the equivalent dose would be 210,000 and 255,000 mg/day for 10 days.

[3] = Stability of gallic acid at pH 5.5 over 24 h; assay type: physicochemical
rabbits [4] = details: cited from earlier work
tannase = molecular target: T2, tannase (Aspergillus oryzae, UniProt P78581); assay: Tannase (20 U/mL) hydrolysis to free gallic acid, rhodanine assay; assay type: biochemical
T2 construct: purchased
T2 sequence (P78581 19-588): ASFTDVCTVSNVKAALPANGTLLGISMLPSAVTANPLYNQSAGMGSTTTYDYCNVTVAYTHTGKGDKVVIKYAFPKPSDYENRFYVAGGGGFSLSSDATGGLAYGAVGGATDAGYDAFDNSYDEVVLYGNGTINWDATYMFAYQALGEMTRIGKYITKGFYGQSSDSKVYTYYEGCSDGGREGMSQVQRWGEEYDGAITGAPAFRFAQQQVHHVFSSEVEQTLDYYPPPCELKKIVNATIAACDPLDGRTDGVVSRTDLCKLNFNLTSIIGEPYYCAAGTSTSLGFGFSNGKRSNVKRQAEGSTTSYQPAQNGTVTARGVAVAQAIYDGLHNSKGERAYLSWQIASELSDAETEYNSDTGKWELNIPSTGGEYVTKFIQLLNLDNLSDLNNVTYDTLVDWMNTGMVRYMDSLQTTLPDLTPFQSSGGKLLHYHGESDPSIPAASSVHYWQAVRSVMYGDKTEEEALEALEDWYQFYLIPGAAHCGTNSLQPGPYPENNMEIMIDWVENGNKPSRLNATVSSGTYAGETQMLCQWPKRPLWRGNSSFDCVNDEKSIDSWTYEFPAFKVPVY
Method: 200 uL of 641±16 and 2051±46 ppm GAE gallotannin isolate was aliquotted into test tubes and made up to 1 mL with 20 U/mL tannase hydrated in pH 5.5, 0.1 M citrate buffer. Samples were incubated for 0, 0.16 (10 min), 0.5, 1, 2, 4, 6, 12, and 24 h at 35° C. in a static water bath. After each time point had elapsed, 1 mL of 0.1% formic acid MeOH was added to each test tube. 50 and 100 ppm monogalloyl glucose was also treated with tannase under the same conditions. The total pro-gallic acid content of the gallotannin isolate and monogalloyl glucose were quantified by the colorimetric rhodanine assay modified from Inoue & Hagerman (1988). 600 μL of 0.667% rhodanine in methanol was added to 400 μL of hydrolyzed tannin fraction sample. After 10 min, 400 μL of 0.5 M NaOH was added to develop color for 20 min until bringing the final volume to 10 mL with deionized water. Absorbance was measured at 520 nm.

Question: For `Oc1cccc(O)c1O` [PG, pyrogallol], which “adipogenesis and lipid accumulation” value (3T3-L1 adipocytes) is on record?
Answer: inhibit adipogenesis and reduce lipid accumulation

Question: What about the thermogenesis (3T3-L1 adipocytes) of the same molecule?
Answer: promotes thermogenesis

Question: Which results are given for `O=C(OC[C@H]1O[C@@H](OC(=O)c2cc(O)c(O)c(O)c2)[C@H](OC(=O)c2cc(O)c(O)c(O)c2)[C@@H](OC(=O)c2cc(O)c(O)c(O)c2)[C@@H]1OC(=O)c1cc(O)c(O)c(O)c1)c1cc(O)c(O)c(O)c1` [pentagalloyl glucose]?
Answer: total pro-gallic acid content generated (molar basis) ([1]; 2 h incubation): 45.5±0.53%; pentagalloyl glucose hydrolyzed ([1]; 2 h incubation, pH 5.5, 30° C.): 97.2±0.27%

Question: What does the source list for `O=C(O)c1cc(O)c(O)c(O)c1` [Gallic Acid, gallic acid]?
Answer: equivalent dose of the LD50 for a human equivalent of 75 kg (rabbits [2]): 210,000 mg/day; stability of gallic acid at the conditions of the method ([3]; 50 and 100 ppm gallic acid in pH 5.5 buffer, after 24 h): did not show any indication of degradation; Gallic acid concentration (stability at pH 5.5) ([3]; gallic acid 50 mg/L, pH 5.5, 0 h): 48.2 ± 1.28 ^a mg/L; Gallic acid concentration (stability at pH 5.5) ([3]; gallic acid 50 mg/L, pH 5.5, 1 h): 50.4 ± 0.45 ^b mg/L; Gallic acid concentration (stability at pH 5.5) ([3]; gallic acid 50 mg/L, pH 5.5, 2 h): 51.2 ± 0.62 ^b mg/L; Gallic acid concentration (stability at pH 5.5) ([3]; gallic acid 50 mg/L, pH 5.5, 12 h): 47.2 ± 0.87 ^b mg/L; Gallic acid concentration (stability at pH 5.5) ([3]; gallic acid 50 mg/L, pH 5.5, 24 h): 49.4 ± 0.37 ^b mg/L; Gallic acid concentration (stability at pH 5.5) ([3]; gallic acid 100 mg/L, pH 5.5, 0 h): 107 ± 3.07 ^a mg/L; Gallic acid concentration (stability at pH 5.5) ([3]; gallic acid 100 mg/L, pH 5.5, 1 h): 102 ± 2.43 ^b mg/L; Gallic acid concentration (stability at pH 5.5) ([3]; gallic acid 100 mg/L, pH 5.5, 2 h): 111 ± 1.63 ^b mg/L; Gallic acid concentration (stability at pH 5.5) ([3]; gallic acid 100 mg/L, pH 5.5, 12 h): 97.9 ± 1.38 ^b mg/L; Gallic acid concentration (stability at pH 5.5) ([3]; gallic acid 100 mg/L, pH 5.5, 24 h): 108 ± 1.11 ^b mg/L; oral LD50 (rabbits [4]; rabbit, in vivo, po): 2800 mg/kg/day

Question: For `O=C(OC[C@H]1O[C@@H](OC(=O)c2cc(O)c(O)c(OC(=O)c3cc(O)c(O)c(O)c3)c2)[C@H](OC(=O)c2cc(O)c(O)c(OC(=O)c3cc(O)c(O)c(O)c3)c2)[C@@H](OC(=O)c2cc(O)c(O)c(OC(=O)c3cc(O)c(O)c(O)c3)c2)[C@@H]1OC(=O)c1cc(O)c(O)c(OC(=O)c2cc(O)c(O)c(O)c2)c1)c1cc(O)c(O)c(OC(=O)c2cc(O)c(O)c(O)c2)c1` [tannic acid], which “equivalent dose of the LD50 for a human equivalent of 75 kg” value (rabbits [2]) is on record?
Answer: 255,000 mg/day

Question: And the “margin of the highest selected study dose (566 mg/L) below the LD50 dose” value (rabbits [2]; human equivalent of 75 kg)?
Answer: 451 fold

Question: And the “oral LD50” value (rabbits [4]; rabbits, for 10 days)?
Answer: 3400 mg/kg/day

Question: With monogalloyl glucose as the molecule, how does the “hydrolysis to free gallic acid” value (tannase; 1 h incubation with 20 U/mL of tannase) read?
Answer: completely hydrolyzed to free gallic acid

Question: What about the “Free gallic acid from hydrolysis with 20 U/mL of tannase” value (“Free gallic acid from hydrolysis” for short) (tannase; monogalloyl glucose 50 mg/L, pH 5.5, 0 h) of the same molecule?
Answer: 1.26 ± 0.13 ^a mg/L

Question: What about the “Free gallic acid from hydrolysis” value (tannase; monogalloyl glucose 50 mg/L, pH 5.5, 1 h) of the same molecule?
Answer: 19.9 ± 0.13 ^b mg/L

Question: And the “Free gallic acid from hydrolysis” value (tannase; monogalloyl glucose 50 mg/L, pH 5.5, 2 h)?
Answer: 20.2 ± 0.88 ^b mg/L

Question: What about the “Free gallic acid from hydrolysis” value (tannase; monogalloyl glucose 50 mg/L, pH 5.5, 12 h) of the same molecule?
Answer: 20.1 ± 0.25 ^b mg/L

Question: What about the “Free gallic acid from hydrolysis” value (tannase; monogalloyl glucose 50 mg/L, pH 5.5, 24 h) of the same molecule?
Answer: 19.9 ± 0.87 ^b mg/L

Question: What about the “Free gallic acid from hydrolysis” value (tannase; monogalloyl glucose 100 mg/L, pH 5.5, 0 h) of the same molecule?
Answer: 1.76 ± 0.25 ^a mg/L

Question: And the “Free gallic acid from hydrolysis” value (tannase; monogalloyl glucose 100 mg/L, pH 5.5, 1 h)?
Answer: 39.7 ± 0.50 ^b mg/L

Question: What about the “Free gallic acid from hydrolysis” value (tannase; monogalloyl glucose 100 mg/L, pH 5.5, 2 h) of the same molecule?
Answer: 42.5 ± 1.01 ^b mg/L

Question: And the “Free gallic acid from hydrolysis” value (tannase; monogalloyl glucose 100 mg/L, pH 5.5, 12 h)?
Answer: 39.2 ± 1.89 ^b mg/L

Question: And the “Free gallic acid from hydrolysis” value (tannase; monogalloyl glucose 100 mg/L, pH 5.5, 24 h)?
Answer: 35.7 ± 3.14 ^b mg/L

Question: What about the “time to reach the same amount of generated gallic acid as pentagalloyl glucose at 2 h” value [1] of the same molecule?
Answer: 4 h

Question: What about the “total pro-gallic acid content generated (molar basis)” value ([1]; 2 h incubation) of the same molecule?
Answer: 28.9±0.26%
